How the values were obtained:
[1] = system: Normal human corneal epithelial cells; experiment: Effect on increase of cell number of normal human corneal epithelial cells (Experimental Example 1, Cell Counting Kit-8); assay type: cell-based; conditions: for cell number increase rate: 24 hr stimulation, relative to non-addition group = 100%, mean ± SD, N = 3-4
Protocol: Normal human corneal epithelial cells (KURABO) were used.
As a test substance, [3-[2-[4-isopropyl-2-(4-trifluoromethyl)phenyl-5-thiazolyl]ethyl]-5-methyl-1,2-benzisoxazol-6-yl]oxyacetic acid (hereinafter to be referred to as compound A) was used. Compound A was dissolved in ethanol (Wako Pure Chemical Industries, Ltd.) to a concentration 200-fold of the final concentration in a culture medium, and the solution was stored at −80° C. until immediately before use.
As a cell culture medium for consideration of the cell number-increasing effect by compound A, a culture medium (basal medium) obtained by adding insulin, hydrocortisone and transferrin contained in HCGS growth additive set (KURABO) to EpiLife (KURABO) was used.
Normal human corneal epithelial cells cryopreserved in liquid nitrogen were thawed and the cell number was counted. The total amount thereof was transferred to EpiLife added with all of the HCGS growth additive set (insulin, epidermal growth factor mEGF derived from mouse, hydrocortisone, transferrin, bovine brain hypophysis extract) (4 mL, complete medium), and suspended well therein. The cell suspension was seeded on a fibronectin-coated 24 well plate (Becton Dickinson) at a cell number of 2×10^4 cells/500 μL/well (1×10^4 cells/cm^2 since bottom area was 2 cm^2).
After completion of cell seeding, the culture plate was incubated in an incubator set to 37° C., 5% CO2, 95% air and 100% humidity for 24 hr, and the culture medium was changed to 400 μL of the basal medium (EpiLife added with insulin, hydrocortisone and transferrin from HCGS growth additives).
After 24 hr thereafter, the culture medium was changed to the following culture medium (each 400 μL). • [1] basal medium alone (non-addition group) • [2] basal medium+mEGF (final concentration: 1 ng/mL; positive control group) • [3] basal medium+compound A (final concentration: 0.1 nM, 1 nM, 0.01 μM, 0.1 μM; compound A addition group)
Ethanol (5 μL) was added to 1 mL each of culture media and [2] to uniformly set the ethanol concentration of all culture media to 0.5%.
After 24 hr from the start of the stimulation with compound A, the culture supernatant was removed from each well, and a basal medium added with 10% Cell Counting Kit-8 (DOJINDO) was dispensed to each well by 200 μL. After dispensing, the culture plate was transferred to an incubator set to 37° C., 5% CO2, 95% air and 100% humidity and incubated for 2 hr. The supernatant (100 μL) was transferred to a 96 well culture plate for tissue culture (Corning), and the absorbance of each well at 450 nm was measured with a microplate reader (Dainippon Sumitomo Pharma Co., Ltd.), and used as an index of cell number increase.
The values of the positive control group and the compound A addition group were calculated based on the average absorbance of the non-addition group as 100%, and the non-addition group was compared with the compound A addition group and positive control group according to the Dunnett multiple comparison test (one-tailed). A critical value of less than 5% as a result of the test was judged as significant.

[2] = system: corneal epithelial defect; experiment: Promoting action on corneal epithelial wound healing after corneal epithelial scraping (Experimental Example 2); assay type: in vivo, Japanese white rabbits; conditions: rabbit; for ratio of the remaining corneal epithelial defect: mean ± SD, N = 6
Protocol: Male Japanese white rabbits (KITAYAMA LABES Co., Ltd.) were used. The experimental animals were used according to the International Guiding Principles for Biomedical Research involving Animals.
Compound A was used as a test substance. Compound A was dissolved in the following vehicle at 0.0005% or suspended in the following vehicle at 0.005% and used as an instillation.
As a control for the compound A administration group, the above-mentioned vehicle instillation group free of medicament was used.
Animals received intramuscular injection (1 mL/kg) of a Selactal (2% xylazine; Bayer, Ltd.): Ketalar (5% ketamine; DAIICHI SANKYO COMPANY, LIMITED)=1:1 mixture for systemic anesthesia, and oxybuprocaine hydrochloride instillation (Benoxil instillation 0.4%; Santen Pharmaceutical CO., Ltd.) and then the eyeballs were exposed. Using a trephine with a diameter of 10 mm, a mark (diameter 10 mm) was stamped on the corneal epithelium in the central part of the cornea, and the entire corneal epithelial layer within the marked circle was scraped off with a handy rooter under a stereomicroscope. After scraping, the corneal surface was washed with physiological saline (OTSUKA PHARMACEUTICAL FACTORY, INC.), and the corneal epithelial scraping treatment was completed by placing the eyeball back in the orbitae.
Compound A instillation or an instillation vehicle was instilled by 50 μL each time into the treated eye with a micropipette twice a day on the day of corneal epithelial scraping and four times a day from the next day to the completion of the test.
Using the time point when the corneal epithelial scraping was completed in all animals as a test starting time (0 hr), the area of corneal epithelium defect was quantified 40, 48, 56 and 64 hr later, based on which wound healing of the corneal epithelium was evaluated. To be precise, 0.1% fluorescein sodium (Wako Pure Chemical Industries, Ltd.) solution (10 μL) was instilled into the treated eye at each time point, and the anterior ocular segment of the animals was immediately photographed using a slit lamp with a blue filter, whereby the fluorescein-stained corneal epithelial deficient region was recorded. The developed photograph was stored as digital images on a computer, and the area of the fluorescein-stained corneal epithelial defect was measured using an image analysis software (Image-Pro Plus).
The area of the fluorescein-stained corneal epithelial defect measured at each time point was calculated based on the initial value of each animal as 100%, and taken as the ratio of the remaining corneal epithelial defect. The ratio of the remaining corneal epithelial defect at each time point was compared between the vehicle instillation group and compound A instillation group using the t-test. A critical value of less than 5% as a result of the test was judged as significant.

In the case of `Cc1cc2c(CCc3sc(-c4ccc(C(F)(F)F)cc4)nc3C(C)C)noc2cc1OCC(=O)O` [compound A, [3-[2-[4-isopropyl-2-(4-trifluoromethyl)phenyl-5-thiazolyl]ethyl]-5-methyl-1,2-benzisoxazol-6-yl]oxyacetic acid], the “effect on cell number of normal human corneal epithelial cells (in words)” value ([1]; 0.1 nM-0.1 μM, conclusion of the test) was “increases the cell number of normal human corneal epithelial cells”, the “cell number increase rate” value ([1]; 10^−7 M) was 172.6 ± 16.0% and the “cell number increase rate” value ([1]; 10^−8 M) was 187.4 ± 10.2%. For the same compound, the “cell number increase rate” value ([1]; 10^−9 M) was 169.0 ± 8.2%, the “cell number increase rate” value ([1]; 10^−10 M) was 177.4 ± 20.8% and the “ratio of the remaining corneal epithelial defect” value ([2]; 0.0005% instillation, 0 hr (initial value)) was 100.0 ± 0.0%. For the same compound, the “ratio of the remaining corneal epithelial defect” value ([2]; 0.0005% instillation, 40 hr later, initial value = 100%) was 24.8 ± 2.7%, the “ratio of the remaining corneal epithelial defect” value ([2]; 0.0005% instillation, 48 hr later, initial value = 100%) was 11.8 ± 2.9 % and the “ratio of the remaining corneal epithelial defect” value ([2]; 0.0005% instillation, 56 hr later, initial value = 100%) was 3.8 ± 2.8%. The “ratio of the remaining corneal epithelial defect” value ([2]; 0.0005% instillation, 64 hr later, initial value = 100%) was 0.8 ± 1.4%, the “ratio of the remaining corneal epithelial defect” value ([2]; 0.005% instillation, 0 hr (initial value)) was 100.0 ± 0.0% and the “ratio of the remaining corneal epithelial defect” value ([2]; 0.005% instillation, 40 hr later, initial value = 100%) was 18.6 ± 8.0 %. The “ratio of the remaining corneal epithelial defect” value ([2]; 0.005% instillation, 48 hr later, initial value = 100%) was 9.1 ± 6.4 %, the “ratio of the remaining corneal epithelial defect” value ([2]; 0.005% instillation, 56 hr later, initial value = 100%) was 3.4 ± 3.7% and the “ratio of the remaining corneal epithelial defect” value ([2]; 0.005% instillation, 64 hr later, initial value = 100%) was 0.9 ± 1.3%. The “effect on wound healing of corneal epithelial defect (in words)” value ([2]; instillation 0.0005% or 0.005%, conclusion of the test) was “promotes wound healing of corneal epithelial defect”.

From patent US8802705B2, “Pharmaceutical containing PPAR delta agonist” (Senju Pharmaceutical Co., Ltd., priority 2007, dated 2014)
